Assay results as given in US20230026437A1, “BACTERIA-ASSOCIATED VOLATILE ORGANIC COMPOUNDS” (THE STATE OF ISRAEL, MINISTRY OF AGRICULTURE & RURAL …, priority 2019, published 2023).
“Also recorded” adds a separate entry of the source.

Columns and labels:
[1] = system: Macrophomina phaseolina, Rhizoctonia solani, Pythium aphanidermatum and Sclerotinia sclerotiorum; experiment: Antifungal activity of synthetic VOCs, plate assay; assay type: cell-based
Experimental: Antifungal activity of synthetic VOCs. The GC-MS identified VOCs produced by NYG5 were screened through literature for their any biological activity and the novel compound which were not tested so far were purchased as pure standard compound of the most representative VOCs from Hollan Moran Ltd., Israel. The pure synthetic compounds were tested against four different fungal pathogens (Macrophomina phaseolina, Rhizoctonia solani, […]) in small plastic petri plates. A freshly growing mycelial agar bid (4 mm) were placed in the center of PDA medium and one sterile paper disc (10 mm) were kept on the lid of the plate. After fungal inoculation, the tested compounds (10 μl for each) were placed on sterile filter disc and plates were double sealed with parafilm in inverted position having mycelium disc on the top side of the plate to check the direct effect of volatiles on mycelial growth. Three individual replicates were maintained for each treatment including control having sterile filter disc and solvent (70% ethanol) in which compounds were diluted. […] The plates were incubated at 25° C. and radial growth of fungal mycelial was measured at day interval until 3 days.

[2] = system: Fusarium oxysporum spores; experiment: Effect of 2,3-Hexanedione (C3) on fungal spores in liquid; assay type: cell-based
Experimental: Effect of 2, 3-Hexanedione (C3) on fungal spores in liquid. To test the effect of C3 on spore germination, fungal spores were harvested after 3 days growth of Fusarium oxysporum in Potato Dextrose Broth medium with continuous shaking at 25° C. To collect the spores, 3 days old grown mycelial in broth medium was filtered through sterilized glass wools and filtrate was centrifuged at 4000 rpm. The supernatant was discarded, and pellet was suspended in sterilized water to a dilution of 10^6 (spores/ml) and counted through hemocytometer. Spore inhibition test was performed in 1.5 ml Eppendorf tube having 100 μl of 5×10^5 spores and mixed with a final concentration of 1 ppm, 10 ppm and 100 ppm of C3 compound. The tubes were tightly closed and sealed with parafilm and incubated at 25° C. Spore germination was observed under compound microscope by placing 20 μl of solution droplet from control and treatment on glass slide. The germination was reconfirmed by growing the 20 μl of solution from tube on PDA simultaneously to check the mycelial growth. All experiments had three individual replicates and repeated twice having identical conditions.

[3] = system: Fusarium oxysporum f sp. Cubense; experiment: C3 against Fusarium oxysporum f sp. Cubense in-vitro; assay type: cell-based
[4] = system: Macrophomina; experiment: Effect of C3 on fungal morphology (actively growing mycelium); assay type: cell-based, Macrophomina phaseolina; details: C3 exposure, plate assay
[5] = system: Meloidogyne javanica larvae; experiment: In-vitro nematicidal activity of 2,3-Hexanedione (C3), two-compartment plate; assay type: in vivo; details: 2 days of exposure, no direct contact
From the text: In-vitro nematicidal activity of 2, 3-Hexanedione (C3). Nematicidal efficacy of 2,3-Hexanedione had been tested against Meloidogyne javanica larvae. M. javanica eggs were extracted from the infected root of tomato Lycopersicon esculentum using standard protocol. The experiment was set up in a two-compartment plate to test the nematicidal activity of C3 compound against M. javanica larvae. One small glass vial was placed in one-half of compartment having 300 M. javanica larvae in 1000 of 0.001 M IVIES and sterile filter disc were kept in another compartment. The discs were spot with 10 μl of different concentration (0.05 and 0.5 ppm) of C3 compound and double sealed with parafilm. Each treatment had three independent replicates with control (without any compound only sterile disc). After 2 days of incubation M. javanica were carefully washed through 30 μm sieve and allowed to pass the sieve for 3 hours. All incubations were performed in the dark at 25±1° C. Survived M. javanica were counted under microscope.

[6] = system: Arabidopsis thaliana; experiment: Effect of 2,3-Hexanedione (C3) on A. thaliana growth, two-compartment plate; assay type: in vivo; details: 2 weeks of exposure
Experimental: Experimental set up for evaluation of 2,3-Hexanedione (C3) effect on Arabidopsis thaliana. Plant material and seed germination. A. thaliana (Ecotype Col-1) seeds were obtained from ARO Volcani center. The seeds were surface sterilized thrice with sterile distilled water and kept at 4° C. till 48 hours for stratification in dark on moist filter paper in petri plate. After two days of stratification the seeds were placed for germination on Murashige and Skoog (MS) medium with vitamins, 3% sucrose (30 g/1), and 0.03% phytagel (pH 5.7) for 3 days at 23° C. Effect of 2,3-Hexanedione (C3) on A. thaliana growth. Effect of 2,3-Hexanedione on A. thaliana development was evaluated in-vitro conditions in a two-compartment plate assay. Uniformly germinated seeds (5) were transplanted on MS medium in one side of compartment plate and another compartment was used to place the tested compound C3 similarly with other experiments. […] The control plants were maintained without any compound in two compartment petri plates. The plants were grown under 14-hour day/10-hour night cycles at 23° C. for 2 weeks and growth parameters were observed.

[7] = system: PR1 gene; experiment: Effect of C3 on PR gene expression in A. thaliana (qRT-PCR); assay type: in vivo, Arabidopsis thaliana; details: leaves, 7 days of exposure, no direct contact
From the text: (§1) Effect of 2,3-Hexanedione (C3) on PR gene expression in A. thaliana. An individual experiment was designed similarly as described above to check the effect of 2,3-Hexanedione on PR gene induction in A. thaliana. The plants were exposed with 2,3-Hexanedione in a two compartment plates for one week. After one week, leaves from individual plants of each replicate were pooled separately for RNA isolation. Total RNA was isolated from the leaf tissue of plant using RNA isolation kit (Nucleo spin RNA Plant, MACHEREY-NAGEL) according the manufacturer's instruction. Before starting the protocol, leaves were ground under liquid N2 and 100 mg of grinded tissue was used for RNA isolation. RNA quantification was done using Qubit analyzer. Purified RNA was used for cDNA synthesis using first strand Invitrogen cDNA synthesis kit according the manufacturer's instructions with […] of RNA. Synthesized cDNA was diluted to 1000 times and 10 ul aliquots were stored for gene expression analysis. The relative gene expression level of PR1, PR2, PR5 and Actin (as internal control) were quantified for C3 exposed and control plants. For qRT PCR a 20 ul reaction was programmed at 95° C. denaturation for 1 min, followed by 40 cycles of amplification at 95° C. for 5s, 60° C. for 30s, and 72° C. for 30s.

[8] = system: PR2 gene; experiment: as above; assay type: in vivo, Arabidopsis thaliana; details: leaves, 7 days of exposure, no direct contact
From the text: as §1

[9] = system: PR5; experiment: as above; assay type: in vivo, Arabidopsis thaliana; details: leaves, 7 days of exposure, no direct contact
From the text: as §1

[10] = system: N. tabacum; experiment: Effect of C3 on tobacco seedlings growth, two-compartment plate; assay type: in vivo, Nicotiana tabacum; details: 0.01 and 0.05 ppm, 14 days of growth
From the text: Seeds of N. tabacum were placed on MS agar media in a two-compartment plate with C3 in different concentrations on a sterile paper disk on the other half of the plate without direct contact between the compartments. In the control treatments, a sterile disk with ethanol was used.

| SMILES | effect on fungi ([1]; 0.5 ppm) | effect of volatile exposure on all tested fungal pathogens ([1]; volatile exposure) | germination of spores ([2]; 1 ppm in liquid, at least for 3 days) | growth of treated spores on PDA medium ([2]; C3-treated spores plated on PDA) | effect against the fungus ([3]; 50 ppm) | effect against the fungus ([3]; 200 ppm) | effect on actively-growing mycelia [4] | larval viability ([5]; 0.05 ppm) | nematicidal activity ([5]; 0.5 ppm) | effect on plant growth parameters ([6]; 0.005 ppm and 0.5 ppm) | effect on plant growth ([6]; 0.05 ppm) | induction of PR1 gene [7] | upregulation of PR2 gene transcript [8] | PR5 at transcriptional level [9] | plant biomass [10] | primary roots length [10] | effect on mycelial growth ([1]; higher concentrations, 100 and 500 ppm) |
| --- | --- | --- | --- | --- | --- | --- | --- | --- | --- | --- | --- | --- | --- | --- | --- | --- | --- |
| CCCC(=O)C(C)=O [Compound C3, 2,3-Hexanedione] | lethal | fungicidal effect | no germination | no growth was observed | inhibitory effect | lethal effect | mycelium growth inhibition | significantly reduced | 80% | did not show any effect | enhanced the growth; also recorded: significant increase | 3 fold | 5 fold | no significant difference | significantly enhanced | longer |  |
| CC(=O)CCC(C)C [Compound C2, 5-Methyl-2-hexanone] |  |  |  |  |  |  |  |  |  |  |  |  |  |  |  |  | inhibitory effect |
